Experiment [1] relates to synuclein phosphorylation by endogenous kinase. The experiment in a line: kinase inhibitor treatment of mouse cortical cultures (MCC), total and phospho-synuclein ELISA. It is filed as cell-based. How it is done:
Mouse cortical cultures from fetal (i) Swiss-Webster, (ii) C56BL/6 WT and (iii) C56BL/6 E46K-Synuclein Trangenic mice were prepared and maintained in B27/DMEM/1% Penicillin-Streptomycin at 37° C./10% CO2 for three to fourteen days and then treated with kinase inhibitors.
Cultures were exposed to inhibitors for two hours in B27/DMEM/1% Penicillin-Streptomycin. Cells were immediately washed in 100 μL of PBS plus Mg^2+ and Ca^2+, and harvested in ice-cold CEB minus EGTA plus protease inhibitors, frozen on dry ice and stored at −80° C. until processed. A Micro BCA (Pierce) total protein assay, and total synuclein and phospho-synuclein ELISAs were performed on each plate of treated cells using standard methods.
A general note: In an ELISA, binding on a coated surface is turned into a signal by an enzyme label.

Experiment [2] concerns endogenous kinase (synuclein phosphorylation). Briefly: HEK-293 cells overexpressing synuclein with empty vector, inhibition of synuclein phosphorylation. The format is cell-based, human. The settings on record: for EC50: Homo sapiens. How it is done:
(§1) All vectors had the sequence coding for the protein of interest. Transfection was accomplished using Lipofectamine 2000 (Invitrogen, Carlsbad, Calif.) with 0.08 μg vector. Cells were washed and harvested 48 hours post-transfection. A Micro BCA (Pierce) total protein assay and total synuclein and phospho-synuclein ELISAs were performed on each plate of treated cells.

For another experiment, the system named is panel of 260 kinases. The experiment in a line: screen against a panel of 260 kinases at 10 uM. It is filed as biochemical.
Experiment [3] has as its system synuclein phosphorylation (serine-129). Briefly: inhibition of synuclein phosphorylation across the cellular paradigms (primary neuronal cultures and 293 cells). The settings on record: Homo sapiens, HEK293, read-out: EC50 inhibition of synuclein phosphorylation, cellular paradigms. The format is cell-based, mouse, rat and human.
The target of experiment [4] is T1, PLK2 (Homo sapiens, UniProt Q9NYY3). The experiment in a line: in vitro biochemical assay of PLK2-driven synuclein phosphorylation. As for the experimental part:
The reaction was incubated at 37° C. The activity was analyzed by autoradiography.
In vitro biochemical assays using each of the four PLK family members as the kinase to phosphorylate synuclein were conducted.

The target of a further experiment is T2, PLK3 (Homo sapiens, UniProt Q9H4B4).
T2 construct: expressed in transfected cells; host or cells: HEK-293
T2 sequence (Q9H4B4 whole entry): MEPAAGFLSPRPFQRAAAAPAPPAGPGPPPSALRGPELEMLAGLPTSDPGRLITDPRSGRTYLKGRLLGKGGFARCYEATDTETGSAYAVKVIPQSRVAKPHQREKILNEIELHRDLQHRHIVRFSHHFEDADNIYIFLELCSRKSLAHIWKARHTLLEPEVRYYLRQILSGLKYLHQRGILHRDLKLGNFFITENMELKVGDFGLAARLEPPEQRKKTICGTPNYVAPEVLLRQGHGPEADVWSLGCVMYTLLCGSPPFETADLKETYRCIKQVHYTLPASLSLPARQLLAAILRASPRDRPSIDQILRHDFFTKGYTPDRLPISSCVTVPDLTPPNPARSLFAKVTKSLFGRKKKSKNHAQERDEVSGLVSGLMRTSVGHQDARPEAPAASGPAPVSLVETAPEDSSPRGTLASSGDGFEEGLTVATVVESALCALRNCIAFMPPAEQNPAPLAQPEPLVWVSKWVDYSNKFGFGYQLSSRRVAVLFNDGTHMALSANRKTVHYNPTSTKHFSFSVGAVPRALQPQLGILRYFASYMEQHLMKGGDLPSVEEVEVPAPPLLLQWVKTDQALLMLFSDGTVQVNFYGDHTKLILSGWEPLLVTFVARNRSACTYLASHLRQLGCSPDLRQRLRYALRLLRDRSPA
The experiment in a line: HEK-293 cells overexpressing synuclein and PLK3, inhibition of synuclein phosphorylation. The format is cell-based. How it is done:
as §1

Experiment [5] addresses T1, PLK2. The experiment in a line: HEK-293 cells overexpressing synuclein and PLK2, inhibition of synuclein phosphorylation. The format is cell-based. Further details: expressed in transfected cells; host or cells: HEK-293. How it is done:
as §1

The subject of experiment [6] is synuclein phosphorylation by constitutively active PLK2 (caPLK2). The experiment in a line: kinase inhibitor treatment of RVM cultures transduced with E46K-synuclein plus ca-PLK2. The settings on record: rat ventral mesencephalon cultures. It is filed as cell-based. How it is done:
(§2) Rat Ventral Mesencephalon (RVM) cultures were prepared from E15 Wistar rats. The RVM cultures were cultured for 2 days and transduced with 0.75 MOI E46K-Synuclein lentivirus alone, or 0.75 MOI E46K-Synuclein lentivirus plus 0.75 MOI ca-PLK2 lentivirus. […] Transduced cultures were maintained in neuronal media with B27/1% FBS and 37° C./5% CO2 until treated with inhibitors. On DIV 17 (which corresponds to 15 days after viral transduction of the cultures) cells were treated with inhibitors for two hours. Cells were then harvested as detailed above in neuronal media with B27/1% FBS. A Micro BCA (Pierce) total protein assay, and total synuclein and phospho-synuclein ELISAs were performed on each plate of treated cells using standard methods.

Experiment [7] relates to synuclein phosphorylation by endogenous kinase. Briefly: kinase inhibitor treatment of rat ventral mesencephalon (RVM) cultures transduced with E46K-synuclein. The format is cell-based. How it is done: as §2
The target of the next experiment is T3, PLK1 (Homo sapiens, UniProt P53350).
T3 construct: expressed in transfected cells; host or cells: HEK-293
T3 sequence (P53350 whole entry): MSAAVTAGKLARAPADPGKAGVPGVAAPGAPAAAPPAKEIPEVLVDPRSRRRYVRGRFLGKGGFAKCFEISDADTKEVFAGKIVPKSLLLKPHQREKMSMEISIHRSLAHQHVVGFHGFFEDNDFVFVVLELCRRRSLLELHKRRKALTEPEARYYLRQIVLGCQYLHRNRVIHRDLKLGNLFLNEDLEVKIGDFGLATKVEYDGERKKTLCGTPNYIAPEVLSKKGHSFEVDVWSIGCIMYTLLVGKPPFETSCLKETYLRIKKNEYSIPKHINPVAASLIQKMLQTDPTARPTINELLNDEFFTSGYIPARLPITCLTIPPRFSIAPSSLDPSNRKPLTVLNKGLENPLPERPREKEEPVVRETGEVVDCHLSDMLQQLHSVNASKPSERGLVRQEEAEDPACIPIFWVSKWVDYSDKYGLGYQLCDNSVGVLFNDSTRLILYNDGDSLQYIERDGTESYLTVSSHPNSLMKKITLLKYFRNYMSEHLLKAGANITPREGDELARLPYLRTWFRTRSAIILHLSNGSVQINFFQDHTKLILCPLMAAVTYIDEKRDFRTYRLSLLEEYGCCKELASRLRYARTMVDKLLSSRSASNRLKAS
Briefly: HEK-293 cells overexpressing synuclein and PLK1, inhibition of synuclein phosphorylation. The format is cell-based. How it is done: as §1

For a further experiment, the target named is T4, PLK4 (Homo sapiens, UniProt O00444).
T4 sequence (O00444 1-970): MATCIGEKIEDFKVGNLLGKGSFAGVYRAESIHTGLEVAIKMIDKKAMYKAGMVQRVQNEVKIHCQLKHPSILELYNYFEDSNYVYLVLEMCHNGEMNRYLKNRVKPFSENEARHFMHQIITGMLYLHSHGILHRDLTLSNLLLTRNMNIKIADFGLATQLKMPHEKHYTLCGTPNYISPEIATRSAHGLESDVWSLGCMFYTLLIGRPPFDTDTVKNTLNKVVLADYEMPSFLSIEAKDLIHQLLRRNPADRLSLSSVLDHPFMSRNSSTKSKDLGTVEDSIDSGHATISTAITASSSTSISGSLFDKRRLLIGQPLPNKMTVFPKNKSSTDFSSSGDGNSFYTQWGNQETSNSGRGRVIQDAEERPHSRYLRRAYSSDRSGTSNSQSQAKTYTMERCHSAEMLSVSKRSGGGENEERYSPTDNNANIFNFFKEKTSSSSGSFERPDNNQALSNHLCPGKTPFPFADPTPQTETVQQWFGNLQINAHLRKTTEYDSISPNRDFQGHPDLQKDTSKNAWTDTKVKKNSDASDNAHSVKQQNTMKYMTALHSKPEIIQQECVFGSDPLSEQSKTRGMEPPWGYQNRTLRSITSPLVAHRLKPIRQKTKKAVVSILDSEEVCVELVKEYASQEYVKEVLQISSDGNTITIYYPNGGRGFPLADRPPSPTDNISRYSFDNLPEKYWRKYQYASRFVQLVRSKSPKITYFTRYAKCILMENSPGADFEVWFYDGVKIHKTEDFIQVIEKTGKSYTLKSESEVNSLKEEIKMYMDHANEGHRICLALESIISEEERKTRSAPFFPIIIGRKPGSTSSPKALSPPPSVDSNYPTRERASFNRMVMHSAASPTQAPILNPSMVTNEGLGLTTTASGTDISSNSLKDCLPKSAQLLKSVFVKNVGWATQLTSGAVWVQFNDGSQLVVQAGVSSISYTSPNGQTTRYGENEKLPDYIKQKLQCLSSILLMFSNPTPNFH
Briefly: HEK-293 cells overexpressing synuclein and PLK4, inhibition of synuclein phosphorylation. The settings on record: HEK-293, Table 22. It is filed as cell-based. As for the experimental part: as §1

The next experiment deals with brain p-synuclein. Briefly: synuclein phosphorylation in brains of FVB mice treated with kainic acid (immunohistochemistry, ELISA). It is filed as in vivo, mouse. The settings on record: immunohistochemistry and ELISA. The source says:
This example describes up regulation of phosphorylated α-synuclein (p-synuclein) in wildtype mice after kainic acid administration. Several articles have reported that excitotoxicity can result in an upregulation of polo-like kinases. […] Thus the kainic acid model provides better understanding the involvement of the PLK2 p-synuclein pathway in neurodegeneration and may be used in screening assays of the invention.

[8] abbreviates: Swiss-Webster mouse cortical cultures, read-out: EC50, Swiss-Webster MCC.
The mark [9] stands for this setting: WT mouse cortical cultures, read-out: EC50, WT-MCC.

Here are results for 3 compounds from patent US20110207796A1, “ALPHA-SYNUCLEIN KINASE” (Elan Pharma International Limited, priority 2008, published 2011).

Like-named read-outs stand apart in the source and are kept apart here.

T1 sequence (Q9NYY3 whole entry): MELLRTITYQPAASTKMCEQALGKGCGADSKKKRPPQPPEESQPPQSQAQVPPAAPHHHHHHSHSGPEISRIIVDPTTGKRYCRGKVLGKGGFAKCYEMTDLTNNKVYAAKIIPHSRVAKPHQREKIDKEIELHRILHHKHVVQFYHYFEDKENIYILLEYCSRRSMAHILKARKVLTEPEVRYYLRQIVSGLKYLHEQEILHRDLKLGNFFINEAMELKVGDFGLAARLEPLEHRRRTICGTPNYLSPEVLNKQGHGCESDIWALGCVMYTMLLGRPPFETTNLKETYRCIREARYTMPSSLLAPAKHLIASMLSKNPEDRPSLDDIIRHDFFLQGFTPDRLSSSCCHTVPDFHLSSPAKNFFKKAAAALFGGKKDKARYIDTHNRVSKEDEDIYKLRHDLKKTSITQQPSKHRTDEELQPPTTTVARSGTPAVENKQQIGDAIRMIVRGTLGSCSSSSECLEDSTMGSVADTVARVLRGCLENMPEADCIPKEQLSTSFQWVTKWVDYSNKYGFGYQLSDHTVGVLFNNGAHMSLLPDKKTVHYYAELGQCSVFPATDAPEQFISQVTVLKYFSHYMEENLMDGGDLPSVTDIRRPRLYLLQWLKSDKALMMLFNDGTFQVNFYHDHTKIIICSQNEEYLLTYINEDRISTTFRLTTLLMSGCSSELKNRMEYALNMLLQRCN

Usually EC50 stands for the midpoint of the concentration-response curve. `CC[C@@H]1C(=O)N(C)c2cnc(Nc3ccc(C(=O)NC4CCN(C)CC4)cc3OC)nc2N1C1CCCC1` [BI 2536, 4-[[(7r)-8-cyclopentyl-7-ethyl-5,6,7,8-tetrahydro-5-methyl-6-oxo-2-pteridinyl]amino]-3-methoxy-n-(1-methyl-4-piperidinyl)-benzamide]: the 50% effective concentration (EC50) in [1] (Mus musculus, read-out: EC50, E46K-Syn TG MCC) is less than 0.1 µM; in experiment [1] (setting [8]), 0.092 µM; in experiment [1] (setting [9]) it was less than 0.1 µM; in experiment [2] (HEK293, read-out: EC50, Endogenous Kinase (293)) it was 0.054 µM; in [2] (HEK293, read-out: EC50 Based on the Percent Inhibition of Synuclein Phosphorylation, Synuclein + Vector), 0.099 µM; in [2] (HEK293, read-out: EC50 synuclein phosphorylation, endogenous kinase), 0.099 µM. Moreover, the concentration giving a half-maximal response (EC50) in [3] (most EC50 values, all cellular paradigms) is not above 0.1 µM. Moreover, in the experiment with panel of 260 kinases, the “inhibition in panel of 260 kinases” value is “very potent in inhibiting PLK2 and PLK3”.
For orientation: IC50 means the concentration needed to halve the response being measured. Take `CN(C)c1nc2c(Br)c(Br)c(Br)c(Br)c2[nH]1` [DMAT, 2-Dimethylamino-4,5,6,7-tetrabromo-1H-benzimidazole]: the “rank order of potency, E46K-Syn TG MCC” value in experiment [1] (E46K-Synuclein transgenic mouse cortical cultures) was found to be 4. Further, the concentration for a half-maximal effect (EC50) was 16.6 µM in [1] (E46K-Synuclein transgenic mouse cortical cultures, read-out: EC50, E46K-Syn TG MCC); 21.6 µM in experiment [1] (setting [8]); 18.7 µM in experiment [1] (setting [9]); 37.3 µM at PLK3 (HEK-293, Example 16, Table 21, read-out: EC50 Based on the Percent Inhibition of Synuclein Phosphorylation, Synuclein + PLK3); 18.6 µM at PLK2 [5] (293 cells, Table 18, read-out: EC50, Over-Expressed PLK2 (293)); 13.9 µM at PLK2 [5] (HEK-293, Example 16, Table 21, read-out: EC50 Based on the Percent Inhibition of Synuclein Phosphorylation, Synuclein + PLK2). For the same compound, the EC50 amounted to 28.5 µM in [6]; 33 µM in experiment [2] (HEK293, 293 cells, Table 18, read-out: EC50, Endogenous Kinase (293)); 55.7 µM in [2] (HEK293, HEK-293, Example 16, Table 21, read-out: EC50 Based on the Percent Inhibition of Synuclein Phosphorylation, Synuclein + Vector); 56 µM in [2] (HEK293, HEK-293, synuclein only, read-out: EC50 synuclein phosphorylation, endogenous kinase); 20 µM in [7]; 27.2 µM on PLK1 (HEK-293, Example 16, Table 21, read-out: EC50 Based on the Percent Inhibition of Synuclein Phosphorylation, Synuclein + PLK1). Further, the EC50 in experiment [3] (most of the cellular paradigms / cell types tested) was 16 to 33 µM. Further, the “rank order of potency, Swiss-Webster MCC” value in experiment [1] (Swiss-Webster mouse cortical cultures) stood at 4. Besides, the “rank order of potency, WT-MCC” value in [1] (WT mouse cortical cultures) came out at 4. In addition, on PLK2 [4] (PLK2-driven synuclein phosphorylation, read-out: IC50 in the in vitro biochemical assay), the IC50 came to 2.07 µM. The “rank order of potency, Straight Biochemical” value on PLK2 [4] (rank among 8 inhibitors) came out at 2. Besides, on PLK3 (HEK-293, Table 22), the “Rank Order of Potency Based on Percent Inhibition of Synuclein Phosphorylation, Synuclein + PLK3” value is 2. The “rank order of potency, Over-Expressed PLK2 (293)” value on PLK2 [5] (293 cells, Table 19) is 4. Moreover, the “Rank Order of Potency Based on Percent Inhibition of Synuclein Phosphorylation, Synuclein + PLK2” value at PLK2 [5] (HEK-293, Table 22) amounted to 2. Moreover, in experiment [6], the “rank order of potency, RVM E46K-Synuclein caPLK2” value came out at 4. The “rank order of potency, Endogenous Kinase (293)” value in [2] (293 cells, Table 19) turned out to be 3. Further, the “Rank Order of Potency Based on Percent Inhibition of Synuclein Phosphorylation, Synuclein + Vector” value in [2] (HEK-293, Table 22) amounted to 2. For the same compound, the “rank order of potency, RVM E46K-Synuclein” value in experiment [7] is 4. On PLK1 (HEK-293, Table 22), the “Rank Order of Potency Based on Percent Inhibition of Synuclein Phosphorylation, Synuclein + PLK1” value was determined as 3. Besides, the “Rank Order of Potency Based on Percent Inhibition of Synuclein Phosphorylation, Synuclein + PLK4” value at PLK4 came out at 2.
`C=C(C)[C@H]1CN[C@H](C(=O)O)[C@H]1CC(=O)O` [kainic acid]: the “p-synuclein levels in brain” value in the experiment on brain p-synuclein is “Increased levels”.
